Reference: paper PMC6616570, “Discovery of novel oestrogen receptor α agonists and antagonists by screening a revisited privileged structure moiety for nuclear receptors” (Scientific Reports, 2019)
Entries after “also recorded” stand apart in the source; their conditions may differ. Like-named read-outs stand apart in the source and are kept apart here.

Tests used:
ERα [1] = molecular target: T1, ERα (Homo sapiens, UniProt P03372); test: Competitive binding assay using [3H]E2 against GST-fused ERα LBD
T1 construct: the ERα LBD was amplified by polymerase chain reaction and subcloned into the pGEX-6P-1 vector; made in house; host or cells: Escherichia coli BL21α
T1 sequence (P03372 311-547 limits assumed): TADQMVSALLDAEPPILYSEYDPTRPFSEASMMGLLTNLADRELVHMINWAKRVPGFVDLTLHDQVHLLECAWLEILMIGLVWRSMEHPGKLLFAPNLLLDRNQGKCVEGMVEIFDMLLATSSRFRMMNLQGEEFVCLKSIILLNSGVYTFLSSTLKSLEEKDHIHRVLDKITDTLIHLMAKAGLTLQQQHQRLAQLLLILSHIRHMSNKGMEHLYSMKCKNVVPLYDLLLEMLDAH
Description: The ERα cDNA clone was purchased from OriGene Technologies, Inc. (Rockville, MD, USA). For construction of the expression plasmid, the ERα LBD was amplified by polymerase chain reaction and subcloned into the pGEX-6P-1 vector (GE Healthcare, Chicago, IL, USA) to obtain as a GST-fused protein. The GST-fused ERα -LBD was expressed in Escherichia coli BL21α cells and purified using Glutathione-Sepharose 4B (GE Healthcare), followed by gel filtration on a Sephadex G-10 column (GE Healthcare).
We performed the radioligand binding assays for ERα according to previously reported by method. […] GST-ERα-LBD (20 ng) was incubated with a series of [^3H]E2 (0.1–30 nM) in a total volume of 100 μL of binding buffer [10% glycerol, 10 mM Tris, 1 mM EGTA, 1 mM EDTA, 1 mM sodium vanadate (V), 0.5 mM phenylmethylsulfonyl fluoride, and 0.2 mM leupeptin (pH 7.4)] for 2 h at 20 °C in order to estimate total binding. Specific binding was calculated by subtracting the nonspecific binding determined by addition of 10 μM non-radiolabeled E2 to another set of working solutions from the observed total binding. After incubation, free radioligand was removed by addition and incubation of 100 μL 0.4% dextran-coated charcoal (Sigma-Aldrich) in phosphate-buffered saline (PBS; pH 7.4) on ice for 10 min. After centrifugation for 10 min at 15,000 rpm, the radioactivity of each supernatant was measured using a liquid scintillation counter (LS6500; Beckman Coulter, Fullerton, CA, USA). The data of the calculated specific binding of [^3H]E2 were assessed by Scatchard plot analysis.
The binding affinities of the test compounds were evaluated by competitive binding assays. Each chemical was dissolved in DMSO to prepare a 1.0-mM stock solution, followed by subsequent incubation of serial dilutions (1 pM to 10 μM) with GST- ERα-LBD (20 ng) and [^3H]E2 (5 nM, final) for 2 hrs at 20 °C to assess their ability to hinder the binding of [^3H]E2. Free radioligand was absorbed by 0.4% dextran-coated charcoal for the saturation binding assay and removed by the vacuum filtration system using a 96-well filtration plate (MultiScreenHTS HV; […] pore size; Merck KGaA, Darmstadt, Germany). The radioactivities of the eluents were measured using a TopCount NXT system (PerkinElmer) for 3 min/well.

ERα [2] = molecular target: T2, ERα (Homo sapiens, UniProt P03372); test: Luciferase-reporter assay for agonist activity in transiently transfected HeLa cells; assay type: cell-based; settings: for ERα agonist / transcriptional activity (in words): reporter-gene assay, 0.1-10 μM
T2 construct: expressed in transfected cells; host or cells: HeLa cells
T2 sequence (P03372 1-595): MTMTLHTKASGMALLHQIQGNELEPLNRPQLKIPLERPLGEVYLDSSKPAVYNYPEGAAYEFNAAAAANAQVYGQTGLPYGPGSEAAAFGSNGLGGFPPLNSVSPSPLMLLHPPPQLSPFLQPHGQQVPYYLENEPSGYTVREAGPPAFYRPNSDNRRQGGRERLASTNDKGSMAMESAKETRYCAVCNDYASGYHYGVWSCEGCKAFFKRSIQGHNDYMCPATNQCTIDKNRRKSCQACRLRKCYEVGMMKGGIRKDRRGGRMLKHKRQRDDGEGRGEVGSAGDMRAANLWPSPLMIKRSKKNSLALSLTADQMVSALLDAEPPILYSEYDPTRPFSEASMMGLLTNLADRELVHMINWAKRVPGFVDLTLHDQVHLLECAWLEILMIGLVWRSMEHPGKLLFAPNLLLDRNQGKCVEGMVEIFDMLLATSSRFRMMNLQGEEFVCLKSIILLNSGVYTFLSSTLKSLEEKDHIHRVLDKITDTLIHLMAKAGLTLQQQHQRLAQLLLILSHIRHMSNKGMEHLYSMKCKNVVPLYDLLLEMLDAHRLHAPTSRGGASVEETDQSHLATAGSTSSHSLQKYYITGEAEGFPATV
Description: HeLa cells were maintained in Eagle’s minimum essential medium (MEM; Nissui Pharmaceutical Co., Ltd, Tokyo, Japan) supplemented with 10% (v/v) foetal bovine serum treated with dextran-coated charcoal at 37 °C under 5% CO2. To analyse the agonist activity, HeLa cells were incubated at a density of 5 × 10^5 cells per 60-mm dish for 24 h, followed by transfection of 3 μg of the reporter plasmid (3 × ERE/pGL4.23) and 1 μg of the ERα expression plasmid (ERα/pcDNA3.1) using Lipofectamine LTX reagent (Thermo Fisher Scientific, Waltham, MA, USA) according to the manufacturer’s instructions. After 24 h, cells were harvested, suspended in Eagle’s MEM, and seeded into 96-well plates at 5 × 10^4 cells/well, followed by treatment with a series of the test compounds diluted with 1% bovine serum albumin (BSA)/PBS (v/v) to prepare different concentrations (0–10 μM). After a 24-h incubation, luciferase activity was measured using a Luciferase Assay system (Promega, Madison, WI, USA) according to the manufacturer’s instructions. […] Cells treated only with 1% BSA/PBS were used as a vehicle control. Each assay was performed in triplicate and repeated at least three times.

ERα [3] = molecular target: T2, ERα; test: Luciferase-reporter assay for antagonist activity in the presence of E2, HeLa cells; assay type: cell-based; settings: for ERα antagonist activity against E2-induced transcription (in words): 1 pM to 10 μM compound in a solution of E2 (1 nM); for reduction of E2-mediated ERα activity: highest concentration, 10 μM
Description: HeLa cells were maintained in Eagle’s minimum essential medium (MEM; Nissui Pharmaceutical Co., Ltd, Tokyo, Japan) supplemented with 10% (v/v) foetal bovine serum treated with dextran-coated charcoal at 37 °C under 5% CO2. To analyse the agonist activity, HeLa cells were incubated at a density of 5 × 10^5 cells per 60-mm dish for 24 h, followed by transfection of 3 μg of the reporter plasmid (3 × ERE/pGL4.23) and 1 μg of the ERα expression plasmid (ERα/pcDNA3.1) using Lipofectamine LTX reagent (Thermo Fisher Scientific, Waltham, MA, USA) according to the manufacturer’s instructions. After 24 h, cells were harvested, suspended in Eagle’s MEM, and seeded into 96-well plates at 5 × 10^4 cells/well, followed by treatment with a series of the test compounds diluted with 1% bovine serum albumin (BSA)/PBS (v/v) to prepare different concentrations (0–10 μM). After a 24-h incubation, luciferase activity was measured using a Luciferase Assay system (Promega, Madison, WI, USA) according to the manufacturer’s instructions. Briefly, cells were lysed using reporter lysis buffer (Promega), and luminescence was measured using a Wallace 1420 ARVOsx multilabel counter (PerkinElmer). Cells treated only with 1% BSA/PBS were used as a vehicle control. Each assay was performed in triplicate and repeated at least three times.
To evaluate antagonistic activity, we examined serial concentrations of test compounds (0–10 μM, final) in the presence of 1 nM or 10 nM concentrations of E2, which normally induces basal levels of ERα-related transcriptional activity.

[4] = system: oestrogen receptors (ERs); settings: cited from earlier work
[5] = system: adult male mouse offspring; settings: in utero exposure to 2 μg/kg/day or 20 μg/kg/day; cited from earlier work
[6] = contaminant of industrial BPA; cited from earlier work
[7] = [3H]17β-oestradiol radioligand (5 nM), GST-ERα-LBD, mean ± SE, read-out: Binding affinity (IC50)

IC50 (ERα [1]; [7])	SMILES	ERα agonist / transcriptional activity (in words) (ERα [2])	ERα antagonist activity against E2-induced transcription (in words) (ERα [3])	reduction of E2-mediated ERα activity (ERα [3])	other results
–	Oc1ccc(C(=C(Cl)Cl)c2ccc(O)cc2)cc1 [compound 1, bisphenol C]	apparent agonistic activity	did not observe any antagonistic activity	–	IC50 (ERα [1]; [3H][…] radioligand (5 nM), GST-ERα-LBD, mean ± SE, read-out: Binding affinity (IC50)): 2.81 ± 0.61 nM; transcriptional activity relative to that of E2 (ERα [2]; ERα reporter-gene assay): ~ 60%
733 ± 628 nM	Cc1cc(C(C)(C)c2ccc(C(C)(C)c3cc(C)c(O)c(C)c3)cc2)cc(C)c1O [compound 18, α,α′-bis(4-hydroxy-3,5-dimethylphenyl)-1,4-diisopropylbenzene]	weak transcriptional activity	inhibited the agonist activity of 1 nM E2 in a dose-dependent manner	up to 90%	–
–	CC(C)(c1ccc(O)cc1)c1cccc(C(C)(C)c2ccc(O)cc2)c1 [compound 7, bisphenol M]	weak transcriptional activity	inhibited the agonist activity of 1 nM E2 in a dose-dependent manner	up to 90%	IC50 (ERα [1]): 56.8 ± 11.7 nM; ERα agonist / transcriptional activity (in words) (ERα [2]; listed as BPM): almost no ERα-specific transcriptional activity
–	CC(C)(c1ccc(O)cc1)c1ccc(O)cc1 [compound 21, bisphenol A]	apparent agonistic activity	–	–	affinity for ERs weaker than 17β-oestradiol (E2) [4]: > 1,000 fold; effect on prostate in adult male offspring (in words) [5]: increases prostate size and weight
–	CC(C)CC(C)(c1ccc(O)cc1)c1ccc(O)cc1 [compound 2, 4,4′-(1,3-dimethylbuthylidene)bisphenol]	–	–	–	estrogenic activity higher than laboratory grade BPA [6]: 8 fold
12.3 ± 7.25 nM	Cc1cc(C(c2ccccc2O)c2cc(C)c(O)c(C)c2C)c(C)c(C)c1O [compound 3, 4,4′-(2-hydroxybenzylidene)-bis(2,3,6-trimethylphenol)]	apparent agonistic activity	–	–	–
38.6 ± 7.16 nM	Cc1cc(C2(c3ccc(O)c(C)c3)CCCCC2)ccc1O [compound 5, 1,1-bis(4-hydroxy-3-methylphenyl)cyclohexane]	apparent agonistic activity	–	–	–
366 ± 20 nM	CC1(C)CC2(CC(C)(C)c3ccc(O)cc3O2)Oc2cc(O)ccc21 [compound 16, spirobicromane]	weak transcriptional activity	inhibited the agonist activity of 1 nM E2 in a dose-dependent manner	up to 90%	–

SMILES	IC50 (ERα [1]; [7])	ERα agonist / transcriptional activity (in words) (ERα [2])	ERα antagonist activity against E2-induced transcription (in words) (ERα [3])	reduction of E2-mediated ERα activity (ERα [3])	other results
CC(C)(c1ccc(O)cc1)c1ccc(C(C)(C)c2ccc(O)cc2)cc1 [compound 11, bisphenol P]	176 ± 35 nM	weak transcriptional activity	inhibited the agonist activity of 1 nM E2 in a dose-dependent manner	up to 90%	ERα agonist / transcriptional activity (in words) (ERα [2]; listed as BPP): almost no ERα-specific transcriptional activity
CC(C)(c1ccc(O)cc1)c1ccc(C(C)(c2ccc(O)cc2)c2ccc(O)cc2)cc1 [compound 10, α,α,α′-tris(4-hydroxyphenyl)-1-ethyl-4-isopropylbenzene]	61.7 ± 10.4 nM	weak transcriptional activity; also recorded: almost no ERα-specific transcriptional activity	inhibited the agonist activity of 1 nM E2 in a dose-dependent manner	up to 90%	–
Oc1ccc(C2(c3ccc(O)cc3)c3ccccc3-c3ccccc32)cc1 [compound 22, 9,9-bis(4-hydroxyphenyl)fluorine]	2230 ± 202 nM	weak transcriptional activity	–	–	binding to the ERα LBD (in words) (ERα [1]; competitive binding assay using [3H]E2): directly binds to the ERα LBD
